Where “and” joins values, the source holds several entries; their conditions need not be identical. Identical values can stand only once.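 The compound was tested at five concentrations on cells cultured in 96-well plates, with a 48-hour exposure period. At the GI50, growth is halved.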 Calls of active or inactive are those of the source. Rule as the data show it: active = GI50 up to about 1.1 µM and inactive = higher. Some results are limits rather than exact numbers.

Among the test systems are HT-29; A549; CCRF-CEM; OVCAR-5; A498; PC-3; SN12C; LXFL 529; NCI-H23; LOX IMVI; Hs-578T; MCF7; NCI/ADR-RES; TK-10; HOP-92; Malme-3M; HOP-62; SK-MEL-2; SK-MEL-5; SF-539.
What all share (test): growth of human tumour cells (NCI), 48 h

`Nc1ccn(C2OC(CO)C(O)C2O)c(=O)n1` (centres undefined): the GI50 in the assay on HT-29 is 112 µM (inactive); in the assay with A549, 0.14 µM (active); in the assay on CCRF-CEM, 0.0527 µM (active); in the assay on OVCAR-5 it was 21.2 µM (inactive); with A498, 18 µM (inactive); in the assay with PC-3 it was 36.5 µM (inactive). Moreover, the GI50 with SN12C is 2.38 µM (inactive); in the assay with LXFL 529, > 443 µM (inactive); with NCI-H23 it was 0.248 µM (active); with LOX IMVI, 0.219 µM (active); in the assay on Hs-578T, > 481 µM (inactive); in the assay on MCF7, 0.156 µM (active). In addition, the GI50 with NCI/ADR-RES was 1.16 µM (inactive); in the assay with TK-10, 467 µM (inactive); in the assay on HOP-92, 9.55 µM (inactive); with Malme-3M, 13.8 µM (inactive); in the assay on HOP-62, 0.213 µM (active); in the assay on SK-MEL-2 it was 457 µM (inactive). The results for the GI50 with SK-MEL-5 and in the assay with SF-539 were 19.8 µM (inactive) and 30.8 µM (inactive), respectively.
For the compound `CCOc1ccc2nc(NC(=O)C(=O)C(C(=O)c3ccccc3-c3ccccc3)C3OC(=O)c4ccccc43)sc2c1` (centres undefined), the GI50 was 19.4 µM (inactive) in the assay with HT-29; 26.4 µM (inactive) in the assay with A549; 21.1 µM (inactive) in the assay with CCRF-CEM; 44.3 µM (inactive) in the assay on OVCAR-5; 22.1 µM (inactive) in the assay with A498; 18.2 µM (inactive) in the assay on PC-3. In addition, the GI50 in the assay on SN12C was 11.7 µM (inactive); in the assay on LXFL 529, 17.4 µM (inactive); with NCI-H23, 17.9 µM (inactive); with LOX IMVI, 17.5 µM (inactive); in the assay with Hs-578T, 34.8 µM (inactive); in the assay with MCF7, 21.2 µM (inactive). Besides, the GI50 with NCI/ADR-RES was 12.1 µM (inactive); with TK-10, 16.5 µM (inactive); with HOP-92, 17.5 µM (inactive); in the assay on Malme-3M, 13.8 µM (inactive); with HOP-62, 25.5 µM (inactive); in the assay on SK-MEL-2, 17.8 µM (inactive). The GI50 was 16.2 µM (inactive) in the assay with SK-MEL-5 and 8.32 µM (inactive) with SF-539.
In the case of `COc1ccc(-c2nc(SC)n(C3OC(COC(C)=O)C(OC(C)=O)C(OC(C)=O)C3OC(C)=O)c(=O)c2C#N)cc1` (centres undefined), the GI50 in the assay on HT-29 was > 100 µM (inactive); with A549, 59 µM (inactive); in the assay on CCRF-CEM, > 100 µM (inactive); in the assay with PC-3, > 100 µM (inactive); in the assay with SN12C, 39.7 µM (inactive); in the assay on LXFL 529, 35.2 µM (inactive). The GI50 in the assay on LOX IMVI was 56.4 µM (inactive); in the assay on Hs-578T, 34.9 µM (inactive); in the assay with MCF7 it was > 100 µM (inactive); in the assay on NCI/ADR-RES, 79.8 µM (inactive); in the assay with TK-10 it was > 100 µM (inactive); in the assay with Malme-3M, 65.6 µM (inactive). The GI50 was > 100 µM (inactive) and 73.3 µM (inactive) in the assay on SK-MEL-2; > 100 µM (inactive) with SK-MEL-5.

The values are drawn from ChEMBL document CHEMBL1201862, “PubChem BioAssay data set” (2004).
